Key:
[1] = tested on: B16 melanoma cells; assay: B16 melanoma subcutaneous tumor model, intratumoral CDN; assay type: in vivo, C57BL/6 mice; settings: 25 μg intratumoral, three injections, FIG. 18; for anti-tumor efficacy (tumor volume): every three days
Procedure: To assess the ability of the derivative molecules to promote anti-tumor immunity, B16 melanoma cells (5×10^4 cells in 100 μL PBS) were implanted subcutaneously on the lower back of 6-8 week old female C57BL/6 mice (8 mice per group). Treatments began when tumors reached a volume of approximately 75 mm^3, on day 14 post tumor implantation. The CDN compounds were administered (25 μg in a total volume of 40 μL HBSS) by subcutaneous injection into the center of the tumor using a 27 gauge needle. Injections were repeated every three days, for a total of three intratumoral injections. The CDNs tested were cyclic [G(3′,5′)pG(3′,5′)p] (CDG); cyclic [G(2′,5′)pG(3′,5′)p] (mixed linkage, or ML CDG); Rp, Rp dithio cyclic [G(2′,5′)pG(3′,5′)p] (ML RR-CDG); cyclic [A(3′,5′)pA(3′,5′)p] (CDA); cyclic [A(2′,5′)pA(3′,5′)p] (mixed linkage, or ML CDA); and Rp, Rp dithio cyclic [A(2′,5′)pA(3′,5′)p] (ML RR-CDA).
(§1) To determine whether the effects of the derivative molecules are STING-dependent, B16 melanoma cells (5×10^4 cells in 100 μL PBS) were implanted on the right flanks of 6-8 week old female goldenticket STING^−/− mice, or wild-type C57BL/6 control mice (5 mice per group). Treatments began when tumors reached a volume of approximately 75 mm^3, on day 14 post tumor implantation. The compounds administered were Rp, Rp dithio cyclic [G(2′,5′)pG(3′,5′)p] (ML RR-CDG) (25 μg in a total volume of 40 μL HBSS), Rp, Rp dithio cyclic [A(2′,5′)pA(3′,5′)p] (ML RR-CDA) (50 μg in a total volume of 40 μL HBSS), the TLR9 agonist CpG 1668 (50 μg in a total volume of 40 μL HBSS), or HBSS vehicle control. Mice were treated by subcutaneous injection into the center of tumor only using a 27 gauge needle. Injections were repeated every three days, for a total of three intratumoral injections.

[2] = tested on: CT26 colon carcinoma cells; assay: CT26 lung metastasis survival model, subcutaneous CDN; assay type: in vivo, BALB/c mice; settings: CT26 intravenous, 25 μg subcutaneous at base of the tail, day 1 and one week later, log-rank test, FIG. 19A
Procedure: To further assess the ability of the derivative molecules to promote anti-tumor immunity, CT26 colon carcinoma cells (2×10^5 cells in 100 μL PBS) were implanted by intravenous injection into 6-8 week old female BALB/c mice and assessed for overall survival. The CDN compounds (25 μg in a total volume of 100 μL HBSS) were administered one day post tumor implantation by subcutaneous injection into the base of the tail. Mice were boosted with an additional injection one week later for a total of two vaccinations.

[3] = tested on: B16 melanoma cells; assay: B16 melanoma tumor model in STING-deficient mice, intratumoral CDN; assay type: in vivo, goldenticket STING−/− mice; settings: ML RR-CDG 25 μg, ML RR-CDA 50 μg, CpG 1668 50 μg, three injections, FIG. 20B
Procedure: as §1

[4] = tested on: hSTING (Q); assay: IFNβ-LUC reporter in HEK293T cells expressing hSTING (Q); assay type: cell-based, human; settings: 10 μM, digitonin permeabilization, 6 hrs, FIG. 14
Text: To determine the responsiveness of the five known natural human STING variants (referred to as WT, REF, HAQ, AQ and Q) to the native and derivative molecules, a panel of human embryonic kidney (HEK) 293T cell lines that expressed the human STING alleles was generated. […] MSCV2.2 plasmids encoding hSTING(REF)-GFP, hSTING(WT)-GFP, hSTING(HAQ)-GFP, hSTING(Q)-GFP and mSTING(WT)-GFP were obtained from the Vance Laboratory at UC Berkeley. hSTING(AQ)-GFP was derived from hSTING(Q)-GFP using a QuickChange Site-Directed Mutagenesis kit (Stratagene). The sequence of the hSTING(REF) allele is also known as the Barber allele (Ishikawa, H., and Barber, G. N. (2008). Nature 455, 674-678), and has the NCBI Reference Sequence NP_938023.1. The amino acid difference between hSTING(REF) and the other WT, HAQ, AQ and Q human STING alleles are shown in FIG. 13, which is adapted from Yi et al., Plos One 8: e77846 (2013). Stable HEK 293T-derived cell lines expressing each of the individual human STING alleles were generated by FACS sorting of GFP positive cells using a Mo Flo cell sorter at the Cancer Research Laboratory Flow Cytometry Facility at UC Berkeley. 1×10^4 HEK293T STING cells were seeded in 96-well plates and transiently transfected (using Lipofectamine 2000) with 50 ng of a human IFN-β reporter plasmid (pLuc-IFN-β) expressing the human IFN-β promoter upstream of a luciferase reporter and 10 ng of TK-renilla for normalization. 24 hours later, cells were stimulated with native and synthetic CDN derivative molecules using digitonin permeabalization to ensure uniform uptake. Each STING cell line was stimulated with 10 μM of cyclic [G(3′,5′)pA(3′,5′)p] (cGAMP), cyclic [G(2′,5′)pA(3′,5′)p] (ML-cGAMP), Rp, Rp dithio cyclic [G(2′,5′)pA(3′,5′)p] […] (CDA), Rp, Rp dithio cyclic [A(3′,5′)pA(3′,5′)p] (RR-CDA), cyclic [A(2′,5′)pA(3′,5′)p] (ML-CDA), Rp, Rp dithio cyclic [A(2′,5′)pA(3′,5′)p] (ML RR-CDA), cyclic [G(3′,5′)pG(3′,5′)p] (CDG), Rp, Rp dithio cyclic [G(3′,5′)pG(3′,5′)p] (RR-CDG), cyclic [G(2′,5′)pG(3′,5′)p] (ML-CDG) or Rp, Rp dithio cyclic [G(2′,5′)pG(3′,5′)p] (ML RR-CDG) in 25 ul digitonin buffer (50 mM HEPES, 100 mM KCL, 3 mM MgCl2, 0.1 mM DTT, 85 mM Sucrose, 0.2% BSA, 1 mM ATP, 0.1 mM GTP, 10 ug/ml digitonin). After 20 min, the stimulation mixtures were removed and 200 ul of standard RPMI media was added. After stimulation for 6 hrs, cell lysates were prepared and reporter gene activity measured using the Dual Luciferase Assay System (Promega) on a Spectramax M3 luminometer.

Nc1ncnc2c1ncn2[C@@H]1O[C@@H]2COP(O)(=S)O[C@@H]3C(O)[C@@H](COP(O)(=S)O[C@H]2[C@H]1O)O[C@H]3n1cnc2c(N)ncnc21 (stereo partly shown) [ML RR-CDA, dithio-[RP, RP]-cyclic-[A(2′,5′)pA(3′,5′)p]]
anti-tumor efficacy (tumor volume) [1]: potent anti-tumor efficacy | tumor rejection ([1]; P=0.0004, student's t-test): significantly more tumor rejection than the ML CDA derivative | survival rates [2]: significantly higher survival rates compared to the cyclic [A(2′,5′)pA(3′,5′)p] (ML CDA) molecule | tumor growth in STING−/− mice [3]: not inhibited | IFNβ reporter response of hSTING (Q) [4]: responsive to stimulation

Nc1nc2c(ncn2[C@@H]2O[C@@H]3CO[P@@](O)(=S)O[C@@H]4[C@H](O)[C@@H](CO[P@@](O)(=S)O[C@H]3[C@H]2O)O[C@H]4n2cnc3c(=O)[nH]c(N)nc32)c(=O)[nH]1 [ML RR-CDG, dithio-[RP,RP]-cyclic-[G(2′,5′)pG(3′,5′)p]]
anti-tumor efficacy (tumor volume) [1]: potent anti-tumor efficacy | tumor status by day 44 post tumor implantation [1]: mice remained nearly tumor-free | survival rates [2]: significantly higher survival rates compared to the cyclic [G(2′,5′)pG(3′,5′)p] (ML CDG) molecule | tumor growth in STING−/− mice [3]: not inhibited | IFNβ reporter response of hSTING (Q) [4]: responsive to stimulation
